Test results as given in PMC9959244, “Revisiting the Solubility–Permeability Relationship with Hydrophobic Drug Umifenovir in Pluronic Solutions: Impact of pH and Co-Solvent” (Pharmaceutics, 2023).

Assay: In vitro permeability, Franz diffusion cell
Assay type: in vitro ADME
Description: The permeability coefficients of UMF were measured in a Franz diffusion cell of a vertical type (PermeGear, Inc., Hellertown, PA, USA) at 310.15 ± 0.1 K. The experimental setup is fully described and illustrated in our previous study. All the experiments were carried out with the help of a regenerated cellulose membrane with a molecular weight cut-off (MWCO) of 12–14 kDa (Standard Grade RC Dialysis Membrane, Flat Width 45 mm) pretreated with water for 30 min and dried under air. A cellulose membrane MWCO 6–8 kDa was additionally used for several experiments. The membrane effective surface area was 0.785 cm^2. It was placed between the donor (7 mL of the stock UMF solution) and acceptor (pure solvent without UMF—blank solution) chambers. In the case of the pH 2.0 donor solution, the blank solution at pH 7.4 was applied in the acceptor chamber in order to simulate the compound transfer to the blood plasma. Samples of 0.5 mL were withdrawn every 30 min from the acceptor chamber and replaced with an equal amount of pure buffer pH 7.4. The solutions were analyzed using a plate-type spectrophotometer (Spectramax 190; Molecular devices, Molecular Devices Corporation, California, USA) and a 96-well UV black plate (Costar). The plot of the cumulative amount of the compound (Q) permeated through the membrane of effective surface area (A) versus time (t) was constructed and the apparent permeability coefficient (Papp) was calculated by the equation:Papp = J/C0(1) where J is the flux through the membrane derived as a slope of the permeation plot (J = dQ/(A·dt)), and C0 is the UMF concentration in the donor solution. Papp values were taken as an average of at least 3 or more experiments.

Permeability coefficient in pure buffer pH 7.4 greater than in pH 2.0: 2.1 fold | Permeability increase by EtOH in buffer pH 7.4 (10% EtOH): 1.4 fold | Permeability increase by EtOH in buffer pH 7.4 (20% EtOH): 1.2 fold | Permeability reduction by 4.0% F-127 vs pure buffer (buffer pH 7.4): 2.35 fold | Papp in 20% EtOH + 1.5% F-127 lower than in buffer pH 7.4 + 1.5% F-127 (pH 7.4): 5.1 fold | Papp in 20% EtOH + 1.5% F-127 lower than in buffer pH 7.4 +20% EtOH (pH 7.4): 10.8 fold | Papp in 20% EtOH + 1.5% F-127 lower than in pure buffer pH 7.4 (pH 7.4): 9.1 fold
Structure (SMILES): CCOC(=O)c1c(CSc2ccccc2)n(C)c2cc(Br)c(O)c(CN(C)C)c12 [UMF, 6-bromo-4-dimethylaminomethyl-5-hydroxy-1-methyl-2-phenylthiomethyl indole-3-carboxylic acid ethyl ester]
